# Laboratory results: publication PMC12049818, “Identification of NUV-244 as a PNPLA3 I148M degrading small molecule” (iScience, 2025)
# Where a chain is given by its changes, count along the chain named.
# Key:
# PNPLA3 I148M-tagRFP = target: T1, PNPLA3 I148M-tagRFP (Homo sapiens, UniProt Q9NST1, I148M); test: Western blot anti-PNPLA3, Huh7 PNPLA3 I148M-tagRFP; format: cell-based; details: 5µM, 24h
# T1 construct: host or cells: Huh7
# T1 sequence (Q9NST1 1-481 I148M): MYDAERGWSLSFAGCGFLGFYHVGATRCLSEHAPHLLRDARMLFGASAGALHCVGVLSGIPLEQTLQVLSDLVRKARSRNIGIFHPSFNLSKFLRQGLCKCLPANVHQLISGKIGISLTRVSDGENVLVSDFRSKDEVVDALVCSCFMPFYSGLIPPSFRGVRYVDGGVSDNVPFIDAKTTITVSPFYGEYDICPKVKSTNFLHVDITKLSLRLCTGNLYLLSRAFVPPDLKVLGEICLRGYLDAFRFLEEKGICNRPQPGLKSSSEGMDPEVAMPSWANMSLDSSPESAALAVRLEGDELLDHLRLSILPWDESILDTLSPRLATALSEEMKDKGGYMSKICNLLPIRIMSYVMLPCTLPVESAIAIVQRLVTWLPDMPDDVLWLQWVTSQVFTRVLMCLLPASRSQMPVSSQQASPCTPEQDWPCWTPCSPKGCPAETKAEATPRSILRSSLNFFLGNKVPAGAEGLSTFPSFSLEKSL
# Protocol: For SDS-PAGE and subsequent western blotting cells were harvested in 1x lysis buffer (50 mM Tris-Cl, pH 7.5, 150 mM NaCl, 1 mM EDTA, 1% Triton X-100) supplemented with complete mini protease inhibitor cocktail (Roche). Total protein concentration of samples was determined with a Bicinchoninic Acid (BCA) protein assay. Cell lysates were boiled for 10 min at 99°C with 1x NuPAGE LDS Sample Buffer and loaded onto a 4-12% Tris-Glycine SDS-PAGE gel. For immunoblotting proteins were transferred to a nitrocellulose membrane (0.2 μm pore size, Schleicher & Schuell) and blocked with Intercept (PBS) Blocking buffer (Licor), incubated with primary antibodies anti-PNPLA3 (1:500, C-8 Santa Cruz, SC-390252), anti-PNPLA3 (1:1000, Millipore, MABS2174) and anti-HSP90 (1:1000, Cell Signaling, #4877), and subsequently incubated with secondary antibodies IRDye 680 or IRDye 800 (1:2000; LI-COR Biosciences). Infrared signal was detected using the Odyssey imaging system (Licor). […]
# a. Huh7, PNPLA3 I148M b. Huh7, PNPLA3 I148M-tagRFP […]
# control NUV-244 control NUV-244
# Supplemental Fig. 9: Western Blot NUV-244 a. […] PNPLA3 bands at 53kDa (unmodified in a.) or 80 kDa (PNPLA3 I148M-tagRFP) were quantified (signal above local background, normalized to loading control using LICOR Odyssey CLx / Image Studio) on two independent Western Blots and percent of intensity compared to DMSO controls calculated (Mean +/ - Stdev). […]
# PNPLA3-tagRFP = target: T2, PNPLA3-tagRFP (Homo sapiens, UniProt Q9NST1); test: Huh7 PNPLA3-tagRFP (WT) reduction on lipid droplets; format: cell-based; details: representative dose-response curve, Figure 3B
# T2 construct: host or cells: Huh7
# T2 sequence (Q9NST1 1-481): T1 sequence (Q9NST1 1-481 I148M) with M148I
# Protocol: To confirm activity, NUV-244 was resynthesized. […] Next, to evaluate the specificity against PNPLA3 WT, Huh7 cells expressing PNPLA3-tagRFP were generated (Figures 3A and S3A). Like the mutant, PNPLA3-tagRFP localizes to lipid droplets in Huh7 cells and NUV-244 dose-dependently leads to a decrease of PNPLA3-tagRFP with a similar potency as for the mutant (Figure 3B).
# For dose-response cells were seeded at 4000 c/30 μl per well in 384 well plates (Revvity, Waltham, MA, USA, PhenoPlate 384-well microplate, #6057308) and stored in a 37°C incubator with 5% CO2 and 95% humidity overnight. Compounds, serially diluted, and DMSO controls were added, and cells were incubated for another 24h. […]
# Images were analyzed using Harmony (Revvity) and MetaXpress software (Molecular Devices, USA) to quantify lipid droplet morphology and PNPLA3 I148M-tagRFP intensity.
# Assay plates were evaluated based on Z’ scores (>0.6) and signal-to-background ratio (>12) using Genedata Screener® for HTS and Condoseo modules (Genedata, Switzerland). […] Automated image analysis routines were set up to quantify the number, morphology and intensity of nuclei, lipid droplets and the intensity of PNPLA3 I148M-tagRFP on lipid droplets. […]
compound,measurement,setting,value
Cc1cccc(Cc2nc(C)c(C(=O)Nc3cc(O)ccc3Cl)s2)c1 [NUV-244],PNPLA3 band intensity printed on the blot shown (DMSO 100%),PNPLA3 I148M-tagRFP; single blot shown in Fig. S9b,72%
same,"PNPLA3 band, percent of intensity compared to DMSO controls","PNPLA3 I148M-tagRFP; two independent Western Blots, Mean +/- Stdev",46+/-4%
same,EC50,PNPLA3-tagRFP,213 nM
